Laboratory results reported in patent publication US20190124959A1, “SYSTEMS, METHODS, AND COMPOSITIONS RELATED TO USING NON-LIVE-BACTERIA PREPARATIONS TO PROMOTE FOOD SAFETY AND PRESERVATION” (priority 2016, published 2019).
Read-outs that look alike come from different tables or passages of the source.

System: E. coli (strains ATCC BAA 1427, 1428, 1429, 1430 and 1431)
Format: cell-based
Design: key: + = Growth; −1 = Inhibition; − = No Growth
Method: A microtiter experiment was conducted to evaluate the pathogen killing effect of the following pathogen killing agents: (1) about 100 μL of non-live-bacteria concentrate having dead bacteria alone (obtained from Example 8), (2) a blend of about 50 μL of non-live-bacteria concentrate having dead bacteria (obtained from Example 8), and about 50 μL of approximately 0.1 M lactic acid, or (3) about 100 μL of approximately 0.1 M lactic acid alone when added into Swanson® chicken broth and a source of pathogens.
About 100 μL chicken broth was added into microtiter wells 1 through 12. The pathogen killing agents were added at about 100 μL into wells 1 and 2. About 100 μL from the mixture of pathogen killing agent and chicken broth were then added to well 3 and then repeated thereafter to create the following dilutions, by volume, until well 11: 1:1, 1:2, 1:4, 1:8, 1:16, 1:32, 1:64, 1:128, 1:256, 1:512, and 1:1024. Next, into all microtiter wells, about 50 μL of a solution containing E. coli (strains ATCC BAA 1427, 1428, 1429, 1430 and 1431) were added such that an approximately 1×10^5 cfu/gram concentration of E. coli in each well was obtained. Well 12 served as the positive control by having no pathogen killing agent added. Microtiter plates containing the wells described above were then placed into an incubator at about 35° C. for either about 24 or about 48 hours. After the appropriate incubation time, microtiter plates were removed from the incubator and the color indicator (about 50 μL iodonitrotetrazolium salt reagent) was added into each well and the microtiter plate placed back into the incubator at about 35° C. for about an additional 4 hours to produce the desired color change reaction. Upon removal from the incubator, the color change and pH in each well were recorded.

CC(O)C(=O)O (stereo not shown) [Lactic Acid, lactic acid]
Microtiter well result, E. coli growth (dilution 1:1, After Incubating at 35° C. for 24 hours): − | Microtiter well result, E. coli growth (dilution 1:1, After Incubating at 35° C. for 48 hours): − | Microtiter well result, E. coli growth (dilution 1:2, After Incubating at 35° C. for 24 hours): − | Microtiter well result, E. coli growth (dilution 1:2, After Incubating at 35° C. for 48 hours): − | Microtiter well result, E. coli growth (dilution 1:4, After Incubating at 35° C. for 24 hours): − | Microtiter well result, E. coli growth (dilution 1:4, After Incubating at 35° C. for 48 hours): + | Microtiter well result, E. coli growth (dilution 1:8, After Incubating at 35° C. for 24 hours): − | Microtiter well result, E. coli growth (dilution 1:8, After Incubating at 35° C. for 48 hours): + | Microtiter well result, E. coli growth (dilution 1:16, After Incubating at 35° C. for 24 hours): − | Microtiter well result, E. coli growth (dilution 1:16, After Incubating at 35° C. for 48 hours): + | Microtiter well result, E. coli growth (dilution 1:32, After Incubating at 35° C. for 24 hours): − | Microtiter well result, E. coli growth (dilution 1:32, After Incubating at 35° C. for 48 hours): + | Microtiter well result, E. coli growth (dilution 1:64, After Incubating at 35° C. for 24 hours): − | Microtiter well result, E. coli growth (dilution 1:64, After Incubating at 35° C. for 48 hours): + | Microtiter well result, E. coli growth (dilution 1:128, After Incubating at 35° C. for 24 hours): + | Microtiter well result, E. coli growth (dilution 1:128, After Incubating at 35° C. for 48 hours): −1 | Microtiter well result, E. coli growth (dilution 1:256, After Incubating at 35° C. for 24 hours): + | Microtiter well result, E. coli growth (dilution 1:256, After Incubating at 35° C. for 48 hours): + | Microtiter well result, E. coli growth (dilution 1:512, After Incubating at 35° C. for 24 hours): + | Microtiter well result, E. coli growth (dilution 1:512, After Incubating at 35° C. for 48 hours): + | Microtiter well result, E. coli growth (dilution 1:1024, After Incubating at 35° C. for 24 hours): + | Microtiter well result, E. coli growth (dilution 1:1024, After Incubating at 35° C. for 48 hours): +
